Results: patent publication US20260193180A1, “AUTOPHAGY INDUCING COMPOUNDS AND USES THEREOF” (SAMSARA THERAPEUTICS INC., priority 2022, published 2026)

Legend:
[1] = test system: Human osteosarcoma U2OS cells; assay: Acidic vesicle formation (lysosome/autolysosome staining, LysoView 633 / LysoTracker Deep Red), stimulation of autophagy; type: cell-based; details: 24 hours
Summary of the method: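 U2OS cells treated with compound for 24 h, then stained 45 min at 37° C with 1× LysoView 633 or 50 nM LysoTracker Deep Red plus Hoechst nuclei. Live-cell fluorescence images (Cy5/DAPI) scored for acidic vesicle formation relative to DMSO control.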

[2] = test system: dopaminergic Tyrosine hydroxylase (TH)-positive neurons; assay: Cellular model of Parkinson's disease, MPP+ injury of primary mesencephalic culture; type: cell-based, rat; details: 0.5 μM, MPP+ 4 μM for 48 h
Method: This model (supplied by Neuro-Sys SAS, France) is based on a primary culture of dopaminergic Tyrosine hydroxylase (TH)-positive neurons injured with the dopaminergic neurons-specific toxin (DA-toxin) 1-methyl-4-phenyl-1,2,3,6 tetrahydropyridine (MPTP) (Dauer and Przedborski, 2003). Any substances reducing DA-toxin neurotoxicity may be useful as a new therapeutic agent for the treatment or prevention of PD.
Primary culture of mesencephalic neurons: Rat dopaminergic neurons were cultured as described by Visanji et al., 2008 and Callizot et al., 2019. Briefly, pregnant female rat (Wistar) of 15 days of gestation were killed using a deep anesthesia with CO2 chamber and a cervical dislocation. The midbrains obtained from 15-day-old rat embryos (Janvier, France) were dissected under a microscope. The embryonic midbrains will be removed and placed in ice-cold medium of Leibovitz (L15) containing 2% of Penicillin-Streptomycin (PS) and 1% of bovine serum albumin (BSA). The ventral portion of the mesencephalic flexure, a region of the developing brain rich in dopaminergic neurons, was used for the cell preparations.
The midbrains were dissociated by trypsinisation for 20 min at 37° C. (solution at a final concentration of 0.05% trypsin and 0.02% EDTA). The reaction was stopped by the addition of Dulbecco's modified Eagle's medium (DMEM) containing DNAase I grade II (0.5 mg/mL) and 10% of foetal calf serum (FCS). Cells were then mechanically dissociated by 3 passages through a 10 ml pipette. Cells were then centrifuged at 180×g for 10 min at +4° C. on a layer of BSA (3.5%) in L15 medium. The supernatant was discarded and the cell pellets re-suspended in a defined culture medium consisting of Neurobasal supplemented with B27 (2%), L-glutamine (2 mM) and 2% of PS solution and 10 ng/mL of Brain-derived neurotrophic factor (BDNF) and 1 ng/mL of Glial-Derived Neurotrophic Factor (GDNF). Viable cells were counted in a Neubauer cytometer using the trypan blue exclusion test. […]

[3] = Bioavailability / brain exposure in CD1 mice; type: in vivo; details: dose of 30 mg/kg
Method: The compounds have good properties for oral dosing and readily cross the blood brain barrier. For example, in CD1 mice, Compound 9 has a maximum concentration in brain plasma of 5067 ng/ml after 30 minutes at a dose of 30 mg/kg. Compound 12 has a maximum concentration in brain plasma of 5853 ng/ml after 8 hours at a dose of 30 mg/kg.

CCOc1ccc(Cl)cc1CN1CC[C@@H](CN)C1.Cl [Compound 12, (S)-(1-(5-chloro-2-ethoxybenzyl)pyrrolidin-3-yl)methanamine hydrochloride]
activation at 0.8 µM ([1]; 0.8 μM, read-out: Activity (percentage increase in acidic vesicle formation over the DMSO-treated control)): 30 to 50% | activation at 10 µM ([1]; 10 μM, read-out: increase in acidic vesicle formation over the DMSO-treated control): ≥ 25% | neurite network of TH positive neurons [2]: protected | neuronal survival (total number of TH positive neurons) [2]: improved | α-Synuclein aggregation in dopaminergic neurons [2]: reduced | maximum concentration in brain plasma [3]: 5853 ng/mL | time of maximum concentration in brain plasma [3]: 8 h
